Measurements reported in patent US20250282794A1 (CURADEV PHARMA LTD, priority 2022, published 2025).
pIC50: −log10 of the molar value.

The compounds below were run against recombinant full length HPK-1 enzyme (Homo sapiens (Human), UniProt Q92918) (assay: HPK-1 biochemical enzyme assay (ADP-Glo kinase inhibition)). Settings: recombinant full length HPK-1 6.8 nM, 10 μM ATP, 12.5 μM MBP, 30 mins at 25° C.
In short: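 ADP-Glo readout of ADP formed after a 30 min, 25° C. reaction of 6.8 nM full-length HPK-1 with swine myelin basic protein (12.5 μM) and ATP (10 μM) in Tris pH 7.4 buffer with MgCl2, DTT and BSA. Ten compound concentrations tested; percent inhibition set against vehicle (0%) and no-enzyme (100%) controls gave IC50.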

Sequence of recombinant full length HPK-1 enzyme (Q92918 whole entry, species assumed): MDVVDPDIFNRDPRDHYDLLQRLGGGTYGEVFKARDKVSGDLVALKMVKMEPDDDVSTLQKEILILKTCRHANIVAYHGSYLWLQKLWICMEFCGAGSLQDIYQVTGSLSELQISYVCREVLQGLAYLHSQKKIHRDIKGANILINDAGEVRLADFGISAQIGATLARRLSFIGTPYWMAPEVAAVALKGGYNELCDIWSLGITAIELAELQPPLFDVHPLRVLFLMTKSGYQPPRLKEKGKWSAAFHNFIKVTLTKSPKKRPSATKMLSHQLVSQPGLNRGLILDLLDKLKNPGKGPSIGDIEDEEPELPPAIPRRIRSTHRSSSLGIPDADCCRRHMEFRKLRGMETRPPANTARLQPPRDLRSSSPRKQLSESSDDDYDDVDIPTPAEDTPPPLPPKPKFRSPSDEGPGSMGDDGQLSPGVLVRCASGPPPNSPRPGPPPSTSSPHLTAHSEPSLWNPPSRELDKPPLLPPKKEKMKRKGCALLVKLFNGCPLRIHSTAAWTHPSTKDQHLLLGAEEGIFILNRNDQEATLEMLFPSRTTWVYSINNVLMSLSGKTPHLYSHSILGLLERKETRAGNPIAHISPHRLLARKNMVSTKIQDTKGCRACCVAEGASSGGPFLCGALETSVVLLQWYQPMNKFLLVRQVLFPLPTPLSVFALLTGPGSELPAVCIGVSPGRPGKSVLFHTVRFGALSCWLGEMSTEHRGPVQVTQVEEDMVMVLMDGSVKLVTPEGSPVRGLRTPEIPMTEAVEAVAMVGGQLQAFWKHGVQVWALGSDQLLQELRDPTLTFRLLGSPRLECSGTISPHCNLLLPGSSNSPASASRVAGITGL

pIC50	SMILES
≥ 8.00	COC(C)(C)C(=O)N1CCN(c2ccc(NC(=O)c3c(Nc4cnc5c(c4C)NCCO5)cc[nH]c3=O)cc2)CC1 [Example 344, N-(4-(4-(2-methoxy-2-methylpropanoyl)piperazin-1-yl)phenyl)-4-((8-methyl-2,3-dihydro-1H-pyrido[2,3-b][1,4]oxazin-7-yl)amino)-2-oxo-1,2-dihydropyridine-3-carboxamide]
≥ 8.00	Cc1c(Nc2cc[nH]c(=O)c2C(=O)Nc2ccc(N3CCN(C)[C@@H](C)C3)cc2)cnc2c1NCCO2 [Example 219, (S)-N-(4-(3,4-dimethylpiperazin-1-yl)phenyl)-4-((8-methyl-2,3-dihydro-1H-pyrido[2,3-b][1,4]oxazin-7-yl)amino)-2-oxo-1,2-dihydropyridine-3-carboxamide]
≥ 8.00	Cc1c(Nc2cc[nH]c(=O)c2C(=O)Nc2ccc(N3CCNCC3)cc2)cnc2c1NCCO2 [Example 139, 4-((8-methyl-2,3-dihydro-1H-pyrido[2,3-b][1,4]oxazin-7-yl)amino)-2-oxo-N-(4-(piperazin-1-yl)phenyl)-1,2-dihydropyridine-3-carboxamide]
≥ 8.00	Cc1c(Nc2cc[nH]c(=O)c2C(=O)Nc2ccc(N3CCN(CC(C)C)CC3)cc2)cnc2c1NCCO2 [Example 370, N-(4-(4-isobutylpiperazin-1-yl)phenyl)-4-((8-methyl-2,3-dihydro-1H-pyrido[2,3-b][1,4]oxazin-7-yl)amino)-2-oxo-1,2-dihydropyridine-3-carboxamide]
≥ 8.00	Cc1c(Nc2cc[nH]c(=O)c2C(=O)Nc2ccc(N3CCC(N4CCN(C(C)C)CC4)CC3)c(F)c2)cnc2c1NCC(C)O2 (centres unmarked) [Example 326, 4-((3,8-dimethyl-2,3-dihydro-1H-pyrido[2,3-b][1,4]oxazin-7-yl)amino)-N-(3-fluoro-4-(4-(4-isopropylpiperazin-1-yl)piperidin-1-yl)phenyl)-2-oxo-1,2-dihydropyridine-3-carboxamide]
≥ 8.00	Cc1c(Nc2cc[nH]c(=O)c2C(=O)Nc2ccc(N3CCN(C4COC4)CC3)cc2)cnc2c1NCCO2 [Example 256, 4-((8-methyl-2,3-dihydro-1H-pyrido[2,3-b][1,4]oxazin-7-yl)amino)-N-(4-(4-(oxetan-3-yl)piperazin-1-yl)phenyl)-2-oxo-1,2-dihydropyridine-3-carboxamide]
6.00 to 7.00	COc1ncc(C(C)(C)O)c2cc(NC(=O)c3c(Nc4cnc5c(c4C)NCCO5)cc[nH]c3=O)ccc12 [Example 396, N-(4-(2-Hydroxypropan-2-yl)-1-methoxyisoquinolin-6-yl)-4-((8-methyl-2,3-dihydro-1H-pyrido[2,3-b][1,4]oxazin-7-yl)amino)-2-oxo-1,2-dihydropyridine-3-carboxamide]
7.00 to 8.00	COCCN1CCN(c2ccc(NC(=O)c3c(Nc4cnc5c(c4C)NCC(C)(C)O5)cc[nH]c3=O)cc2)CC1 [Example 173, N-(4-(4-(2-methoxyethyl)piperazin-1-yl)phenyl)-2-oxo-4-((3,3,8-trimethyl-2,3-dihydro-1H-pyrido[2,3-b][1,4]oxazin-7-yl)amino)-1,2-dihydropyridine-3-carboxamide]
≥ 8.00	Cc1c(Nc2cc[nH]c(=O)c2C(=O)Nc2ccc(N3CCN(C(C)C)CC3)cc2)cnc2c1NCCO2 [Example 106, N-(4-(4-isopropylpiperazin-1-yl)phenyl)-4-((8-methyl-2,3-dihydro-1H-pyrido[2,3-b][1,4]oxazin-7-yl)amino)-2-oxo-1,2-dihydropyridine-3-carboxamide]
≥ 8.00	Cc1c(Nc2cc[nH]c(=O)c2C(=O)Nc2ccc(N3CCS(=O)(=O)CC3)cc2)cnc2c1NCCO2 [Example 138, N-(4-(1,1-dioxidothiomorpholino)phenyl)-4-((8-methyl-2,3-dihydro-1H-pyrido[2,3-b][1,4]oxazin-7-yl)amino)-2-oxo-1,2-dihydropyridine-3-carboxamide]
≥ 8.00	Cc1c(Nc2cc[nH]c(=O)c2C(=O)Nc2ccc(N3CCN(C4CCCC4)CC3)c(F)c2)cnc2c1NCCO2 [Example 259, N-(4-(4-cyclopentylpiperazin-1-yl)-3-fluorophenyl)-4-((8-methyl-2,3-dihydro-1H-pyrido[2,3-b][1,4]oxazin-7-yl)amino)-2-oxo-1,2-dihydropyridine-3-carboxamide]
7.00 to 8.00	CNC(=O)N1CCN(c2ccc(NC(=O)c3c(Nc4cnc5c(c4C)NCCO5)cc[nH]c3=O)cc2)CC1 [Example 287, N-methyl-4-(4-(4-((8-methyl-2,3-dihydro-1H-pyrido[2,3-b][1,4]oxazin-7-yl)amino)-2-oxo-1,2-dihydropyridine-3-carboxamido)phenyl)piperazine-1-carboxamide]
6.00 to 7.00	Cc1c(Nc2cc[nH]c(=O)c2C(=O)Nc2ccc3c(c2)N(C)C(=O)CO3)cnc2c1NCCO2 [Example 239, 4-((8-methyl-2,3-dihydro-1H-pyrido[2,3-b][1,4]oxazin-7-yl)amino)-N-(4-methyl-3-oxo-3,4-dihydro-2H-benzo[b][1,4]oxazin-6-yl)-2-oxo-1,2-dihydropyridine-3-carboxamide]
7.00 to 8.00	CCn1nccc1-c1ccc(NC(=O)c2c(Nc3cnc4c(c3C)NCCO4)cc[nH]c2=O)cc1 [Example 264, N-(4-(1-ethyl-1H-pyrazol-5-yl)phenyl)-4-((8-methyl-2,3-dihydro-1H-pyrido[2,3-b][1,4]oxazin-7-yl)amino)-2-oxo-1,2-dihydropyridine-3-carboxamide]
≥ 8.00	Cc1c(Nc2cc[nH]c(=O)c2C(=O)Nc2ccc(N3CCN(C(C)(C)C)CC3)cc2)cnc2c1NCCO2 [Example 383, N-(4-(4-(tert-butyl)piperazin-1-yl)phenyl)-4-((8-methyl-2,3-dihydro-1H-pyrido[2,3-b][1,4]oxazin-7-yl)amino)-2-oxo-1,2-dihydropyridine-3-carboxamide]
7.00 to 8.00	Cc1c(Nc2cc[nH]c(=O)c2C(=O)Nc2ccc(N3CCC(O)C3)cc2)cnc2c1NCCO2 (centres unmarked) [Example 398, N-(4-(3-hydroxypyrrolidin-1-yl)phenyl)-4-((8-methyl-2,3-dihydro-1H-pyrido[2,3-b][1,4]oxazin-7-yl)amino)-2-oxo-1,2-dihydropyridine-3-carboxamide]
7.00 to 8.00	Cc1c(Nc2cc[nH]c(=O)c2C(=O)Nc2ccc(N3CCN(c4nccs4)CC3)cc2)cnc2c1NCCO2 [Example 371, 4-((8-Methyl-2,3-dihydro-1H-pyrido[2,3-b][1,4]oxazin-7-yl)amino)-2-oxo-N-(4-(4-(thiazol-2-yl)piperazin-1-yl)phenyl)-1,2-dihydropyridine-3-carboxamide]
7.00 to 8.00	Cc1c(Nc2cc[nH]c(=O)c2C(=O)Nc2ccc(N3C[C@@H]4C[C@H]3CN4C)cc2)cnc2c1NCCO2 [Example 236, 4-((8-methyl-2,3-dihydro-1H-pyrido[2,3-b][1,4]oxazin-7-yl)amino)-N-(4-((1S,4S)-5-methyl-2,5-diazabicyclo[2.2.1]heptan-2-yl)phenyl)-2-oxo-1,2-dihydropyridine-3-carboxamide]
≥ 8.00	Cc1c(Nc2cc[nH]c(=O)c2C(=O)Nc2ccc(N3CCN(C)[C@H](C)C3)cc2)cnc2c1NCCO2 [Example 220, (R)-N-(4-(3,4-dimethylpiperazin-1-yl)phenyl)-4-((8-methyl-2,3-dihydro-1H-pyrido[2,3-b][1,4]oxazin-7-yl)amino)-2-oxo-1,2-dihydropyridine-3-carboxamide]
7.00 to 8.00	COc1c(Nc2cc[nH]c(=O)c2C(=O)Nc2ccc(N3CCN(C)CC3)cc2)cnc2c1NCCO2 [Example 132, 4-((8-Methoxy-2,3-dihydro-1H-pyrido[2,3-b][1,4]oxazin-7-yl)amino)-N-(4-(4-methylpiperazin-1-yl)phenyl)-2-oxo-1,2-dihydropyridine-3-carboxamide]
≥ 8.00	Cc1c(Nc2cc[nH]c(=O)c2C(=O)Nc2ccc(N3CCN(C(=O)C(C)C)CC3)cc2)cnc2c1NCCO2 [Example 315, N-(4-(4-Isobutyrylpiperazin-1-yl)phenyl)-4-((8-methyl-2,3-dihydro-1H-pyrido[2,3-b][1,4]oxazin-7-yl)amino)-2-oxo-1,2-dihydropyridine-3-carboxamide]
7.00 to 8.00	Cc1c(Nc2cc[nH]c(=O)c2C(=O)Nc2ccc(N3CCC(C)CC3)cc2)cnc2c1NCCO2 [Example 280, 4-((8-methyl-2,3-dihydro-1H-pyrido[2,3-b][1,4]oxazin-7-yl)amino)-N-(4-(4-methylpiperidin-1-yl)phenyl)-2-oxo-1,2-dihydropyridine-3-carboxamide]
≥ 8.00	Cc1c(Nc2cc[nH]c(=O)c2C(=O)Nc2ccc(N3CCN(C(C)C)CC3)c(F)c2)cnc2c1NCC(C)O2 (centres unmarked) [Example 183, 4-((3,8-dimethyl-2,3-dihydro-1H-pyrido[2,3-b][1,4]oxazin-7-yl)amino)-N-(3-fluoro-4-(4-isopropylpiperazin-1-yl)phenyl)-2-oxo-1,2-dihydropyridine-3-carboxamide]
≥ 8.00	Cc1c(Nc2cc[nH]c(=O)c2C(=O)Nc2ccc(N3CCN(CCCO)CC3)cc2)cnc2c1NCCO2 [Example 175, N-(4-(4-(3-hydroxypropyl)piperazin-1-yl)phenyl)-4-((8-methyl-2,3-dihydro-1H-pyrido[2,3-b][1,4]oxazin-7-yl)amino)-2-oxo-1,2-dihydropyridine-3-carboxamide]
≥ 8.00	Cc1c(Nc2cc[nH]c(=O)c2C(=O)Nc2ccc(N3CCN(C(=O)N4CCC4)CC3)cc2)cnc2c1NCCO2 [Example 325, N-(4-(4-(azetidine-1-carbonyl)piperazin-1-yl)phenyl)-4-((8-methyl-2,3-dihydro-1H-pyrido[2,3-b][1,4]oxazin-7-yl)amino)-2-oxo-1,2-dihydropyridine-3-carboxamide]

SMILES	pIC50
Cc1c(Nc2cc[nH]c(=O)c2C(=O)Nc2ccc(N3CC4CCC(C3)N4C)cc2)cnc2c1NCCO2 [Example 162, 4-((8-methyl-2,3-dihydro-1H-pyrido[2,3-b][1,4]oxazin-7-yl)amino)-N-(4-(8-methyl-3,8-diazabicyclo[3.2.1]octan-3-yl)phenyl)-2-oxo-1,2-dihydropyridine-3-carboxamide]	≥ 8.00
